Paper PMC1892040 (PLoS Medicine, 2007)
“And” between values parts separate entries of the source, which are not always exact repeats. Equal entries are not always repeated. “Also recorded” adds a separate entry of the source.

Columns and labels:
S. mansoni TGR [1] = target: T1, S. mansoni TGR (Schistosoma mansoni, UniProt Q962Y6)
T1 sequence (Q962Y6 1-598): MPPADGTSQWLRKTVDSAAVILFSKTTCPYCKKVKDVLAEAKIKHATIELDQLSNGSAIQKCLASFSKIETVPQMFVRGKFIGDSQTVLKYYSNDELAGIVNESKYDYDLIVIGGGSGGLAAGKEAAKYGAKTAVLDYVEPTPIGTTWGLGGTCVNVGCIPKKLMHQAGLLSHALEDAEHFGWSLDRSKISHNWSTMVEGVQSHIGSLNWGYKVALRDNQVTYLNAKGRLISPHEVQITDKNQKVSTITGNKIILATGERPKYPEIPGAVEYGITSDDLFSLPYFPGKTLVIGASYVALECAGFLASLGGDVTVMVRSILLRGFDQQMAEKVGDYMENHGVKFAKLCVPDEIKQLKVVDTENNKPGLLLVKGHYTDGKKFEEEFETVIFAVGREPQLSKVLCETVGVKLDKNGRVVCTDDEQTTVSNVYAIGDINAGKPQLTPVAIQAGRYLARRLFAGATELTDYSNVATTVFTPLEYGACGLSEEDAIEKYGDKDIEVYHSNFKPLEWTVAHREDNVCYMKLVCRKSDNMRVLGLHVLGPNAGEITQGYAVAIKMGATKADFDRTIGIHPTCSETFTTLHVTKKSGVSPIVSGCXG
Method: (§1) Assays were performed at 25 °C in 0.1 M potassium phosphate (pH 7.4), 10 mM EDTA using 100 μM NADPH unless otherwise stated.
(§2) Initial inhibitor screens were conducted in 200 μl volumes in 96 well plates with 50 μM inhibitor, 100 μM NADPH, and 5 nM TGR in 0.1 M potassium phosphate (pH 7.4), 10 mM EDTA with a preincubation step of 15 min. […] All assays were done in triplicate.

S. mansoni = experiment: Inhibitor studies on infected mice (worm burden); assay type: in vivo, Schistosoma mansoni; settings: for Total Worm Burden, Number of Worms, Mean ± SD / Total Worm Burden Reduction: 6 mg/kg twice daily for 9 d; for Total Worm Burden, Number of Worms, Mean ± SD: intraperitoneally; for Total Worm Burden Reduction: versus control, 6 mg/kg
Method: Mice (14-wk-old females; C57BL/6 in experiment 1, NIH-Swiss in experiment 2) infected with 60 S. mansoni cercariae were injected intraperitoneally with 6 mg/kg of AF twice daily for 9 d, beginning 7 wk post infection. Infected control mice were injected with equal amounts of carrier. Mice were perfused 1 wk after the final dose of AF and worm burdens were determined.

Human TrxR = target: T2, Human TrxR (Homo sapiens, UniProt Q16881); settings: read-out: IC50 Human TrxR, DTNB/Trx; cited from earlier work
T2 sequence (Q16881 1-499 isoform Q16881-5): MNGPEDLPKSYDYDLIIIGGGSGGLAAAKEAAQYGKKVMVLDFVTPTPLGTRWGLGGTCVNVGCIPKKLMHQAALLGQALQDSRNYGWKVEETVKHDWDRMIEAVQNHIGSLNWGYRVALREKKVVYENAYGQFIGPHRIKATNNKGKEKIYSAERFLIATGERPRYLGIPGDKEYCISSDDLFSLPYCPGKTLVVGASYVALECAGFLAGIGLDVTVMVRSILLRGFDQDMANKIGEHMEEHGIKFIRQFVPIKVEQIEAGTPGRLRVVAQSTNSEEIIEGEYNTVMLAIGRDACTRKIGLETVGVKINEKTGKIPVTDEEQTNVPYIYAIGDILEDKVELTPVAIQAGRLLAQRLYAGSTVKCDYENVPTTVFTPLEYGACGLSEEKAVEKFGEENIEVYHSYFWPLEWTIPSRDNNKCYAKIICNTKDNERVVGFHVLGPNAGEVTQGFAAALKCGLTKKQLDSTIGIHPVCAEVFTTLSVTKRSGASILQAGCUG

S. mansoni TGR [2] = target: T1, S. mansoni TGR; experiment: IC50, Grx activity of TGR (HED assay), 15 min preincubation; assay type: biochemical; design: The entire TGR ORF plus the SECIS element was subcloned into pET-24a; made in house; host or cells: Escherichia coli BL21(DE3) with pSUABC; settings: 8 mM HED plus 1 mM GSH, 15 min preincubation with 100 μM NADPH
Method: as §1, §2

GSH peroxidase (GPx) = experiment: GPx activity in homogenates of treated worms; assay type: cell-based, Schistosoma mansoni; settings: 10 μM AF
[3] = tested on: schistosomula and juvenile liver stage parasites; experiment: Survival of larval and juvenile parasites in culture with AF; assay type: cell-based, Schistosoma mansoni; settings: AF at concentrations as low as 5 μM
Text: Percutaneous infection of outbred mice (NIH Swiss or Swiss-Webster) with S. mansoni cercariae (NMRI strain) obtained from infected Biomphalaria glabrata snails, perfusion of adult worms (6–7 wk) and juvenile worms (23 d) and preparation of schistosomula from cercariae were as described. This study was approved by the Institutional Animal Care and Use Committee of Illinois State University (08–2002; Department of Health and Human Services animal welfare assurance number A3762–01).
Figure 6 Survival of Schistosomula, Adult Worms, and Myeloma Cells in the Presence of Auranofin or Potassium Antimonyl Tartrate (A) Cultured schistosomula treated with 0 μM AF (dashed line); AF 0.5 μM (♦); 1 μM (*); 2 μM (x); 5 μM (▴); 10 μM. (B) Survival of adult Schistosoma mansoni worms at 24 h (dashed line), myeloma cells at 24 h; and myeloma cells at 5 d (♦) at given concentrations of AF. (C) As in (B) in the presence of given concentrations of PAT. Each treatment was done in triplicate and each experiment was done three times. Error bars show the standard deviation of the three replicate experiments.

With CC(=O)OC[C@H]1O[C@@H]([S-])[C@H](OC(C)=O)[C@@H](OC(C)=O)[C@@H]1OC(C)=O.CCP(CC)CC.[Au+] [AF, auranofin] the activity (S. mansoni TGR [1]) was 0%, the “Total Worm Burden, Number of Worms, Mean ± SD” value (S. mansoni; C57BL/6 mice) was 12 ± 7.8 and the “Total Worm Burden Reduction” value (S. mansoni; C57BL/6 mice, p < 0.015) was 59% and 59^a %. For the same compound, the “Total Worm Burden, Number of Worms, Mean ± SD” value (S. mansoni; NIH-Swiss mice) was 8.6 ± 1.7, the “Total Worm Burden Reduction” value (S. mansoni; NIH-Swiss mice, p < 0.001) was 63% and 63^b % and the “Worm burden reductions in infected mice” value (S. mansoni; summary value of abstract) was 60% and ~ 60%. For the same compound, the IC50 (Human TrxR) was 0.02 µM, the IC50 (S. mansoni TGR [2]) was 0.006 µM and the “GPx activity in worm homogenates” value (GSH peroxidase (GPx)) was “no significant deviation from controls; also recorded: not inhibited”. The “Time to kill larval, skin stage and juvenile liver stage parasites” value [3] was “less than 10 h”.
